Results published in patent publication US10471048B2, “Thienopyridine derivative for the treatment of hepatitis C infections” (Cipla (UK) Limited, priority 2015, dated 2019).

What was measured:
[1] = HCV replicon assay, cell viability (CytoTox-1); settings: human, Huh7 hepatoma cells containing a subgenomic HCV replicon
Experimental: We use the subgenomic HCV replicons of genotype 1a (H77 strain), 1b (Con1 strain), and 2a (JFH-1 strain), which are Huh7 human hepatoma cell lines that contains an HCV replicon.
Briefly, the replicon cells are plated at 5,000 cells/well into 96-well plates that are dedicated for the analysis of cell numbers (cytotoxicity) or antiviral activity. On the following day, samples are diluted with assay media and added to the appropriate wells. Cells are processed 72 hours later when the cells are still sub-confluent. […] The concentration of drug that reduces cell viability is assessed by the fluorometric CytoTox-1 cell proliferation assay (Promega), (expressed as cell numbers). […] Where applicable EC50 (concentration inhibiting HCV replicon by 50%), EC90 (concentration inhibiting HCV replicon by 90%), CC50 (concentration decreasing cell viability by 50%), CC90 (concentration decreasing cell viability by 90%) and SI (selectivity indices: CC50/EC50 and CC90/EC90) values are derived.

[2] = Infectious HCVcc assay, cell viability (CytoTox-1); settings: human, Huh7.5 cells infected with cell culture-derived HCV (HCVcc)
Experimental: (§1) Huh7.5 cells are grown in Dulbecco's modified essential media (DMEM), 10% fetal bovine serum (FBS), 1% penicillin-streptomycin (pen-strep), 1% Non-essential amino acids (NEAA) in a 5% CO2 incubator at 37° C. Huh7.5 cells are seeded at 1×10^4 cells per well into 96-well plates according to Southern Research Institute standard format. Test articles are serially diluted with DMEM plus 5% FBS. The diluted compound in the amount of 50 μl is mixed with equal volume of cell culture-derived HCV (HCVcc), then applied to appropriate wells in the plate. Human interferon alpha-2b (rIFNα-2b) and/or Sofosbuvir are included as a positive control. After 72 hr incubation at 37° C., the cells are lysed for measurement of luciferase activity using Renilla Luciferase Assay System (Promega) according to manufacturer's instruction. The number of cells in each well is determined by CytoTox-1 reagent (Promega).

[3] = tested on: cell culture-derived HCV (HCVcc); experiment: microbe, parasite or virus in culture; format: cell-based, Hepatitis C virus
Experimental: as §1

HCV GT1b CON-1 replicon = experiment: HCV replicon assay (antiviral activity); format: cell-based, Hepatitis C virus; settings: In vitro HCV replicon assay
Source text: The HCV replicon antiviral evaluation assay examines the effects of compound at six serial dilutions. Human interferon alpha-2b (rIFNα-2b) and Sofosbuvir are included in each run as a positive control compound.

CC(=O)Oc1cc2c(s1)CCN(C(C(=O)C1CC1)c1ccccc1F)C2.Cl (racemic) [Prasugrel, 5-[(1RS)-2-cyclopropyl-1-(2-fluorophenyl)-2-oxoethyl]-4,5,6,7-tetrahydrothieno[3,2-c]pyridin-2-yl acetate hydrochloride]
CC50 at 72 h [1]: 88.5 µM
CC50 at 72 h [2]: > 100 µM
EC50 ([3]; Hepatitis C virus, 72 h): 9.71 µM
Selectivity index ([3]; In vitro HCVcc assay, CC50/EC50): >10.3
EC50 (HCV GT1b CON-1 replicon; Hepatitis C virus, GT1B, concentration inhibiting HCV replicon by 50%, 72 hours): 47.1 µM
Selectivity index (HCV GT1b CON-1 replicon; CC50/EC50): 1.88
